Several values for one entry are separate records, joined by “and”; a condition that tells them apart may be missing. Identical values can stand only once. ± gives the expanded uncertainty stated by the source.
Conditions: Liquid, Ebulliometric method (Recirculating still)

vapor or sublimation pressure (303.15 K) | vapor or sublimation pressure (308.15 K) | vapor or sublimation pressure (313.15 K) | vapor or sublimation pressure (318.15 K) | vapor or sublimation pressure (323.15 K) | SMILES
7.79 ± 0.14 kPa | 9.85 ± 0.14 kPa | 12.34 ± 0.14 kPa | 15.33 ± 0.15 kPa | 18.9 ± 0.15 kPa | CCCCCCC [heptane]
1.95 ± 0.14 kPa and 1.99 ± 0.14 kPa | 2.61 ± 0.14 kPa and 2.65 ± 0.14 kPa | 3.43 ± 0.14 kPa and 3.45 ± 0.14 kPa | 4.46 ± 0.14 kPa and 4.51 ± 0.14 kPa | 5.75 ± 0.14 kPa and 5.83 ± 0.14 kPa | CCOC(=O)OCC [diethyl carbonate]
8.33 ± 0.14 kPa | 10.44 ± 0.14 kPa | 12.97 ± 0.14 kPa | 15.98 ± 0.15 kPa | 19.54 ± 0.15 kPa | CC(C)CC(C)(C)C [2,2,4-trimethylpentane]

SMILES | vapor or sublimation pressure (303.15 K) | vapor or sublimation pressure (308.15 K) | vapor or sublimation pressure (313.15 K) | vapor or sublimation pressure (318.15 K) | vapor or sublimation pressure (323.15 K)
Cc1ccccc1 [toluene] | 4.87 ± 0.14 kPa | 6.32 ± 0.14 kPa | 7.78 ± 0.14 kPa | 9.89 ± 0.14 kPa | 12.27 ± 0.14 kPa
